Values of other authors in patent publication US20100080856A1, “Method and composition for postoperative wound healing” (priority 2008, published 2010).

System: wound healing in severe burn patients
Conditions: oral administration, Crit Care Med. 2000, Vol 28, No. 6, 1772-1776

NCCC[C@H](N)C(=O)O.NCCC[C@H](N)C(=O)O.O=C(O)CCC(=O)C(=O)O [ornithine α-ketoglutarate]
wound healing time: shortens the wound healing time
